Source: PMC7702303, “Biochemical and transcript level differences between the three human phosphofructokinases show optimisation of each isoform for specific metabolic niches” (Biochemical Journal, 2020)
Where two headings read alike, the source gives them in different places.

Experiments:
recombinant human PFK-L = biological target: T1, recombinant human PFK-L (Homo sapiens, UniProt P17858); experiment: ALDO-TIM-G3PDH enzyme-linked kinetic assay, PFK-L; type: biochemical; details: for K0.5F6P + modulator / VmaxF6P + modulator: ATP 0.5mM; for K0.5F6P + modulator / VmaxF6P + modulator / K0.5ATP + modulator / VmaxATP + modulator: N=3, mean (SD); for K0.5ATP + modulator / VmaxATP + modulator: F6P 4mM
T1 construct: made in house; host or cells: PFK-deficient Saccharomyces cerevisiae
T1 sequence (P17858 1-780): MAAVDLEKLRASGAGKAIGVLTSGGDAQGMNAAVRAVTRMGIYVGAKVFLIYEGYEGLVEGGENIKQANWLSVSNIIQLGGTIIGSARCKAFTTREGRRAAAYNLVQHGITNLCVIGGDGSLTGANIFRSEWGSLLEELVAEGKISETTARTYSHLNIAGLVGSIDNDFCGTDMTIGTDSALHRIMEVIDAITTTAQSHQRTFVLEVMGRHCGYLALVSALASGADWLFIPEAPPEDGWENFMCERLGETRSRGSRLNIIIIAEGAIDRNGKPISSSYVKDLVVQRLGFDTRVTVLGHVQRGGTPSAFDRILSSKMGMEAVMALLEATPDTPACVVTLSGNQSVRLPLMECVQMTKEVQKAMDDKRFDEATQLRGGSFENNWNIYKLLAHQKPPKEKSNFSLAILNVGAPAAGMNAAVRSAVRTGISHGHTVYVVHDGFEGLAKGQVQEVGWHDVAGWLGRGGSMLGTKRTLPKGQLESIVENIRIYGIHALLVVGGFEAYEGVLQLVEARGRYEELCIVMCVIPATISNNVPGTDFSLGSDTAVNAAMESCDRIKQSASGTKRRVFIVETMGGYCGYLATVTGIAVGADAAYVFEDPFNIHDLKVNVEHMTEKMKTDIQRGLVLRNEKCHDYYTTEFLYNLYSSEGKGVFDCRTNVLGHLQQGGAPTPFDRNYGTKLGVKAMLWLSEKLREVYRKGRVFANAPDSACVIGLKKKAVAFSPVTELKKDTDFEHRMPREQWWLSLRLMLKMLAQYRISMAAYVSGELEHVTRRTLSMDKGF
Experimental: (§1) Recombinant human PFKs were expressed in PFK-deficient Saccharomyces cerevisiae and purified using the methods described previously, adapting earlier materials and protocols. Production of PFK intended for use in ATP titration experiments used 1 mM F6P as a tetramer stabilising agent in protein purification and storage buffers. Production of PFK intended for use in F6P titration experiments used 1 mM ATP as a tetramer stabilising agent in protein purification and storage buffers. Experimental details on the purification and characterisation procedures including figures showing SDS–PAGE gels of the highly pure PFKs used in the kinetic experiments described in this work have been recently published.
(§2) Assay buffer consisted of 50 mM TEA, 100 mM KCl, 10 mM MgCl2, 1 mM Tris(2-carboxyethyl)phosphine hydrochloride (TCEP), 10% glycerol, pH 7.4. Assay mix consisted of 5 units/ml glycerol-3-phosphate dehydrogenase (G3PDH, Sigma–Aldrich G6880), 2.5 units/ml aldolase (Sigma–Aldrich A2714), 25 units/ml triosephosphate isomerase (TIM, Sigma–Aldrich T6258), and 1.25 mM NADH. ATP and F6P were obtained from Sigma–Aldrich (A2383 and F3627, respectively). For ATP titrations, 38 µl of buffer or ligand were added to a clear non-binding 96-well plate. 40 µl of assay mix containing 10 mM F6P (final concentration 4 mM) was added and the plate was incubated at 25°C for 5 min. An amount of 2 µl of PFK isoforms were added to each well from stock concentrations of 150 µg/ml and the reaction was immediately started with 20 µl of ATP at varying concentrations. For F6P titrations, 30 µl of buffer or ligand was added to a clear non-binding 96-well plate. An amount of 40 µl of assay mix containing 1.25 mM ATP (final concentration 0.5 mM) was added and the plate was incubated at 25°C for 5 min. An amount of 5 µl of PFK isoforms were added to each well from stock concentrations of 200 µg/ml and the reaction was immediately started with 20 µl F6P at varying concentrations. All ligands and substrates (including ATP) were used at pH 7.4. All metabolites were obtained from Sigma–Aldrich unless otherwise stated. […] A SpectraMax M5 Multi-Mode Microplate Reader was used to measure A340nm at 13 s intervals for 10 min. All experiments were performed in triplicate unless otherwise stated.
(§3) Time-dependent absorbance change was converted into rate of NADH oxidation (µM s^−1) or specific activity (µmol min^−1 mg protein^−1) using the Beer-Lambert law (molar extinction coefficient of NADH 6.22 mM^−1 cm^−1). The initial rate of reaction was used to avoid accumulation of ADP, which activates PFK, interfering with the determination of kinetic properties. Non-linear regression analysis was performed on substrate titration data using GraphPad Prism 7, with curves fitted using allosteric sigmoidal models, enabling determination of steady-state kinetic values.

PFK = tested on: PFK; set-up: key to Effect (activator or inhibitor of PFK): “+” indicates activator; “-“ indicates inhibitor; details: cited from earlier work; for IC50: asterisk not explained, read-out: IC50 or AC50 (inhibitor); for IC50 / IC50 or AC50 (activator): ref Moreno-Sanchez et al., 2012; for Effect (activator or inhibitor of PFK): published literature, ref selected references in Supplementary Table 1; for IC50 or AC50 (activator): unit inferred
recombinant human PFK-P = biological target: T2, recombinant human PFK-P (Homo sapiens, UniProt Q01813); experiment: ALDO-TIM-G3PDH enzyme-linked kinetic assay, PFK-P; type: biochemical; details: for K0.5F6P + modulator / VmaxF6P + modulator: ATP 0.5mM; for K0.5F6P + modulator / VmaxF6P + modulator / K0.5ATP + modulator / VmaxATP + modulator: N=3, mean (SD); for K0.5ATP + modulator / VmaxATP + modulator: F6P 4mM
T2 construct: made in house; host or cells: PFK-deficient Saccharomyces cerevisiae
T2 sequence (Q01813 1-784): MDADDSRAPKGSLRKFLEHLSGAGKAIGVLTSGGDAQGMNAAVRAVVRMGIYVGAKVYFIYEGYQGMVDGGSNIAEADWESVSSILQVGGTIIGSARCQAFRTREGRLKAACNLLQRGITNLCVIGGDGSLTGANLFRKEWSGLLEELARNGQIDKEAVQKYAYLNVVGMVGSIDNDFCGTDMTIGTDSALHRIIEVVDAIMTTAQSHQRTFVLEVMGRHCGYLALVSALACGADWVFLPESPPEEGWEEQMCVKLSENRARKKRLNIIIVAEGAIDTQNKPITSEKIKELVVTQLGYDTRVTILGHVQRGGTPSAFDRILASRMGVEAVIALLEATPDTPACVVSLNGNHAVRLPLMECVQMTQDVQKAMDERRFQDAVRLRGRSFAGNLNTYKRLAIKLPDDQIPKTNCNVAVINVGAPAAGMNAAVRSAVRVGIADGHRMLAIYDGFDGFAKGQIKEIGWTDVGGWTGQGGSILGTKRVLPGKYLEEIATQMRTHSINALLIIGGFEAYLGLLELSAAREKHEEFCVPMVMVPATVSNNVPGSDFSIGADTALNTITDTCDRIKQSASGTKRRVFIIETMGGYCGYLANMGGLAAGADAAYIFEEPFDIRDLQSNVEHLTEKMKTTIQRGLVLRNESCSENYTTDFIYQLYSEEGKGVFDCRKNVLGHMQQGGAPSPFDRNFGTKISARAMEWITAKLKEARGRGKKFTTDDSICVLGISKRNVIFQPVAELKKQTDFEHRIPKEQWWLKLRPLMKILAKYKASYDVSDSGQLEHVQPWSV
Experimental: as §1, §2, §3

[1] = second of three values marked *

O=C(O)CC(O)(CC(=O)O)C(=O)O [Citrate]
IC50^citrate (recombinant human PFK-L; PFK-L, dose-response): no clear relationship
change in kcat^ATP/K0.5^ATP compared with control PFK without modulator (recombinant human PFK-L; PFK-L, modulator 600 µM): +28%
change in kcat^F6P/K0.5^F6P compared with control PFK without modulator (recombinant human PFK-L; PFK-L, modulator 600 µM): +2%
K0.5F6P + modulator (recombinant human PFK-L; PFK-L, modulator 600 µM): 2471 (244) M
VmaxF6P + modulator (recombinant human PFK-L; PFK-L, modulator 600 µM): 6.52 (0.71) moles/min/mg
K0.5ATP + modulator (recombinant human PFK-L; PFK-L, modulator 600 µM): 108.4 (9.5) M
VmaxATP + modulator (recombinant human PFK-L; PFK-L, modulator 600 µM): 36.14 (1.12) moles/min/mg
IC50 (PFK; first of three values marked *): 5900 µM
Effect (activator or inhibitor of PFK) (PFK): -
IC50 (PFK; [1]): 490 µM
IC50 (PFK; third of three values marked *): 6700 µM
IC50 (recombinant human PFK-P; dose-response, read-out: IC50^citrate): 177 ± 132 µM
change in kcat^ATP/K0.5^ATP compared with control PFK without modulator (recombinant human PFK-P; modulator 600 µM): +136%
change in kcat^F6P/K0.5^F6P compared with control PFK without modulator (recombinant human PFK-P; modulator 600 µM): −78%
K0.5F6P + modulator (recombinant human PFK-P; modulator 600 µM): 1494 (627) M
VmaxF6P + modulator (recombinant human PFK-P; modulator 600 µM): 0.43 (0.12) moles/min/mg
K0.5ATP + modulator (recombinant human PFK-P; modulator 600 µM): 46.0 (14.4) M
VmaxATP + modulator (recombinant human PFK-P; modulator 600 µM): 10.18 (0.89) moles/min/mg

O=P(O)(O)OC[C@H]1O[C@@](CO)(OP(=O)(O)O)[C@@H](O)[C@@H]1O [F26BP, fructose 2,6-bisphosphate]
effect on PFK activity, in words (recombinant human PFK-L; PFK-L): strongly activated
decrease in AC50^F26BP for PFK-L compared with PFK-P (recombinant human PFK-L; PFK-L vs PFK-P): > 50 fold
allosteric constant K0.5^ATP+F26BP/K0.5^ATP (recombinant human PFK-L; PFK-L, ATP titration): 0.92
AC50 (recombinant human PFK-L; PFK-L, activation, read-out: AC50^F26BP): 0.17 µM
change in kcat^ATP/K0.5^ATP compared with control PFK without modulator (recombinant human PFK-L; PFK-L, modulator 10 µM): +6.5%
change in kcat^F6P/K0.5^F6P compared with control PFK without modulator (recombinant human PFK-L; PFK-L, modulator 10 µM): +148%
K0.5F6P + modulator (recombinant human PFK-L; PFK-L, modulator 10 µM): 698 (105) M
VmaxF6P + modulator (recombinant human PFK-L; PFK-L, modulator 10 µM): 5.07 (0.41) moles/min/mg
K0.5ATP + modulator (recombinant human PFK-L; PFK-L, modulator 10 µM): 139.4 (12.3) M
VmaxATP + modulator (recombinant human PFK-L; PFK-L, modulator 10 µM): 38.57 (1.23) moles/min/mg
IC50 or AC50 (activator) (PFK; first of three values marked *): 0.53 µM
Effect (activator or inhibitor of PFK) (PFK): +
IC50 or AC50 (activator) (PFK; [1]): 4.6 µM
IC50 or AC50 (activator) (PFK; third of three values marked *): 0.58 µM
effect on PFK activity, in words (recombinant human PFK-P): strongly activated
allosteric constant K0.5^ATP+F26BP/K0.5^ATP (recombinant human PFK-P; ATP titration): 0.54
AC50 (recombinant human PFK-P; activation, read-out: AC50^F26BP): 9.13 µM
change in kcat^ATP/K0.5^ATP compared with control PFK without modulator (recombinant human PFK-P; modulator 10 µM): +88%
change in kcat^F6P/K0.5^F6P compared with control PFK without modulator (recombinant human PFK-P; modulator 10 µM): +111%
K0.5F6P + modulator (recombinant human PFK-P; modulator 10 µM): 2143 (132) M
VmaxF6P + modulator (recombinant human PFK-P; modulator 10 µM): 2.45 (0.18) moles/min/mg
K0.5ATP + modulator (recombinant human PFK-P; modulator 10 µM): 176.8 (33.8) M
VmaxATP + modulator (recombinant human PFK-P; modulator 10 µM): 31.26 (1.96) moles/min/mg

C=C(OP(=O)(O)O)C(=O)O [PEP, phosphoenolpyruvate]
change in kcat^ATP/K0.5^ATP compared with control PFK without modulator (recombinant human PFK-L; PFK-L, modulator 1100 µM): +1%
change in kcat^F6P/K0.5^F6P compared with control PFK without modulator (recombinant human PFK-L; PFK-L, modulator 1100 µM): +92%
K0.5F6P + modulator (recombinant human PFK-L; PFK-L, modulator 1100 µM): 952.8 (137.7) M
VmaxF6P + modulator (recombinant human PFK-L; PFK-L, modulator 1100 µM): 5.36 (0.49) moles/min/mg
K0.5ATP + modulator (recombinant human PFK-L; PFK-L, modulator 1100 µM): 148.7 (18.6) M
VmaxATP + modulator (recombinant human PFK-L; PFK-L, modulator 1100 µM): 34.91 (1.59) moles/min/mg
Effect (activator or inhibitor of PFK) (PFK): -
change in kcat^ATP/K0.5^ATP compared with control PFK without modulator (recombinant human PFK-P; modulator 1100 µM): −40%
change in kcat^F6P/K0.5^F6P compared with control PFK without modulator (recombinant human PFK-P; modulator 1100 µM): +9%
K0.5F6P + modulator (recombinant human PFK-P; modulator 1100 µM): 1378 (96) M
VmaxF6P + modulator (recombinant human PFK-P; modulator 1100 µM): 0.81 (0.04) moles/min/mg
K0.5ATP + modulator (recombinant human PFK-P; modulator 1100 µM): 352.3 (133.2) M
VmaxATP + modulator (recombinant human PFK-P; modulator 1100 µM): 23.07 (2.40) moles/min/mg
